Assay results from ChEMBL document CHEMBL1201862, “PubChem BioAssay data set” (2004).
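Assay format: 96-well plates, 48-hour exposure. GI50: concentration for 50% inhibition of growth.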 Calls of active or inactive are those of the source. Cut-off read from the data, not from the text of the source: active = GI50 up to about 1.1 µM and inactive = higher.

Tests used:
Test in all cases: inhibition of tumour cell growth, NCI panel, 48 h
KM12 = system: KM12
HL-60 = system: HL-60
A549 = system: A549
SN12C = system: SN12C
A498 = system: A498
HOP-62 = system: HOP-62
MCF7 = system: MCF7
CAKI-1 = system: CAKI-1
UO-31 = system: UO-31
SF-295 = system: SF-295
U-251 = system: U-251
EKVX = system: EKVX
PC-3 = system: PC-3
MDA-MB-435 = system: MDA-MB-435
BT-549 = system: BT-549
Hs-578T = system: Hs-578T
OVCAR-4 = system: OVCAR-4
OVCAR-8 = system: OVCAR-8
NCI/ADR-RES = system: NCI/ADR-RES

Measured: GI50

N=C(N)NCCNC(=N)N
inactive: KM12 > 100 µM | HL-60 > 100 µM | A549 > 100 µM | SN12C 85.1 µM | A498 > 100 µM | HOP-62 > 100 µM | MCF7 > 100 µM | CAKI-1 > 100 µM | UO-31 > 100 µM | SF-295 > 100 µM | U-251 > 100 µM | EKVX > 100 µM | PC-3 > 100 µM | MDA-MB-435 > 100 µM | BT-549 > 100 µM | Hs-578T > 100 µM | OVCAR-4 > 100 µM | OVCAR-8 > 100 µM | NCI/ADR-RES > 100 µM

COc1cc(C2S/C(=C/c3ccccc3)C(=O)N2c2cc(Cl)c(Cl)cc2Cl)cc(OC)c1OC (stereo unspecified)
inactive: KM12 25.7 µM | HL-60 20.4 µM | A549 35.6 µM | SN12C > 59.8 µM | A498 44.8 µM | HOP-62 28.4 µM | MCF7 30.4 µM | CAKI-1 > 40.8 µM | UO-31 26.7 µM | SF-295 49.3 µM | U-251 44.4 µM | EKVX 9.66 µM | PC-3 26.8 µM | MDA-MB-435 34 µM | BT-549 23.7 µM | Hs-578T 9.27 µM | OVCAR-4 52.6 µM | OVCAR-8 40 µM | NCI/ADR-RES 30.6 µM

COc1cc(Br)cc2cc(-c3cn4c(n3)sc3ccccc34)c(=O)oc12
inactive: KM12 30.4 µM | HL-60 15.6 µM | A549 36.5 µM | SN12C 24.7 µM | A498 21.2 µM | HOP-62 22.7 µM | MCF7 35.6 µM | CAKI-1 22.9 µM | UO-31 18.7 µM | SF-295 19.8 µM | U-251 25.2 µM | EKVX 14.5 µM | PC-3 16.3 µM | MDA-MB-435 24.4 µM | BT-549 24.3 µM | Hs-578T 15.6 µM | OVCAR-4 26.1 µM | OVCAR-8 28.6 µM | NCI/ADR-RES 30.7 µM

Cc1ccc(NC(=O)c2cccc(OP(=O)(O)Nc3ccc(C)cc3)c2)cc1
inactive: KM12 > 100 µM | HL-60 > 100 µM | A549 71.8 µM | SN12C > 100 µM | A498 > 100 µM | HOP-62 > 100 µM | MCF7 > 100 µM | CAKI-1 > 100 µM | UO-31 88.1 µM | SF-295 > 100 µM | U-251 > 100 µM | EKVX > 100 µM | PC-3 > 100 µM | MDA-MB-435 > 100 µM | BT-549 > 100 µM | Hs-578T > 100 µM | OVCAR-4 72.8 µM | OVCAR-8 > 100 µM | NCI/ADR-RES > 100 µM
